# How the values were obtained:
# Aspergillus flavus [1] = experiment: Comparative lethalities of oxidants to Aspergillus flavus; format: cell-based; settings: mM concentrations of oxidants that produce 50% killing of Aspergillus flavus
# endogenous peroxidase = experiment: Endogenous peroxidase activity in leaf extracts assayed with guaiacol; format: biochemical, Nicotiana tabacum; settings: guaiacol assay
# Description: The validity of the assay procedure for CPO-P activity in transgenic tobacco was established in the following manner.
# Aspergillus flavus [2] = settings: H2O2 converted to hypochlorite by myeloperoxidase, in vitro; cited from earlier work
molecule,measurement,setting,value
"OCl [HOCl, hypochlorous acid]",LD50,Aspergillus flavus [1],0.30 mM
"CC(=O)OO [HOOAc, peracetic acid]",LD50,Aspergillus flavus [1],0.15 mM
[N-]=[N+]=[N-].[Na+] [NaN3],inhibition of endogenous peroxidase activity in leaf extracts (in words),endogenous peroxidase,completely inhibited
"OO [Plant H2O2, hydrogen peroxide]",LD50,Aspergillus flavus [1],18.00 mM
"myeloperoxidase: animal haloperoxidase converting hydrogen peroxide to hypochlorous acid (protein, UniProt P05164 165-745, looked up) Myeloperoxidase: VTCPEQDKYRTITGMCNNRRSPTLGASNRAFVRWLPAEYEDGFSLPYGWTPGVKRNGFPVALARAVSNEIVRFPTDQLTPDQERSLMFMQWGQLLDHDLDFTPEPAARASFVTGVNCETSCVQQPPCFPLKIPPNDPRIKNQADCIPFFRSCPACPGSNITIRNQINALTSFVDASMVYGSEEPLARNLRNMSNQLGLLAVNQRFQDNGRALLPFDNLHDDPCLLTNRSARIPCFLAGDTRSSEMPELTSMHTLLLREHNRLATELKSLNPRWDGERLYQEARKIVGAMVQIITYRDYLPLVLGPTAMRKYLPTYRSYNDSVDPRIANVFTNAFRYGHTLIQPFMFRLDNRYQPMEPNPRVPLSRVFFASWRVVLEGGIDPILRGLMATPAKLNRQNQIAVDEIRERLFEQVMRIGLDLPALNMQRSRDHGLPGYNAWRRFCGLPQPETVGQLGTVLRNLKLARKLMEQYGTPNNIDIWMGGVSEPLKRKGRVGPLLACIIGTQFRKLRDGDRFWWENEGVFSMQQRQALAQISLPRIICDNTGITTVSKNNIFMSNSYPRDFVNCSTLPALNLASWREAS",increase in lethality against Aspergillus flavus,Aspergillus flavus [2],≤ 90 fold

# Reference: patent US6703540B1, “Transformation of plants with a chloroperoxidase gene to enhance disease resistance” (The United States of America as represented by the …, priority 2000, dated 2004)
